These results are taken from patent US9409905B2, “Antibacterial compounds and methods for use” (PTC THERAPEUTICS, INC., priority 2011, dated 2016).

In brackets after ≈: the same amount, converted by molar mass.

Assay [1] relates to Staphylococcus aureus (S. aureus) 29213. Put plainly: Antibacterial activity, microbroth dilution MIC (Table 1). It counts as cell-based. The settings on record: microbroth dilution, Gram-positive S. aureus 29213, read-out: MIC, 29213. From the text: (§1) The antibacterial activity from a microbroth dilution method may be presented as the minimum inhibitory concentration (MIC in μg/mL). The MIC value is the lowest concentration of drug which prevents macroscopically visible growth under test conditions.
(§2) Antibacterial activity of test compounds against the super sensitive Gram-negative Escherichia coli (E. coli) BAS849 bacterium, the control Gram-negative E. coli 25922 strain and the Gram-positive Staphylococcus aureus (S. aureus) 29213 bacterium are shown in Table 1.
In general terms: Dilution methods test growth across graded concentrations, often in twofold steps.

The subject of assay [2] is Escherichia coli (E. coli) BAS849. The description is as above. It counts as cell-based. The settings on record: microbroth dilution, super sensitive Gram-negative E. coli BAS849, read-out: MIC, BAS849.
From the text: as §1, §2

The next assay relates to E. coli LZ3111. Briefly: Antibacterial activity, MIC, quinolone resistant strain (Table 2). It counts as cell-based. The settings on record: Escherichia coli, LZ3111, read-out: MIC LZ3111.
From the text: as §1
Mutations in these regions are known to confer a high level resistance to the quinolone class of antibiotics.

A further assay relates to E. coli 25922. Briefly: Antibacterial activity, microbroth dilution MIC (Table 1). It counts as cell-based, Escherichia coli. As to conditions: Escherichia coli; microbroth dilution; control Gram-negative E. coli 25922 strain; read-out: MIC, 25922.
From the text: as §1, §2

`CCc1cc(C(=O)O)c(=O)[nH]c1-c1ccc2nc(CN(CC)CC)cn2c1.Cl.Cl` [Cpd 63, 6-(2-((diethylamino)methyl)imidazo[1,2-a]pyridin-6-yl)-5-ethyl-2-oxo-1,2-dihydropyridine-3-carboxylic acid dihydrochloride]: the minimal inhibitory concentration (MIC) (in assay [1]; in assay [2]; in the assay with E. coli LZ3111; with E. coli 25922) was 12.5 to 150 µg/mL in each case.

`CCc1cc(C(=O)O)c(=O)[nH]c1-c1cc2cc(CN3CCCC3)n(C)c2s1.Cl` [Cpd 64, 5-ethyl-6-(6-methyl-5-(pyrrolidin-1-ylmethyl)-6H-thieno[2,3-b]pyrrol-2-yl)-2-oxo-1,2-dihydropyridine-3-carboxylic acid hydrochloride]: the MIC in assay [1] was 12.5 to 150 µg/mL; in assay [2], less than 1 µg/mL; with E. coli LZ3111, 12.5 to 150 µg/mL; with E. coli 25922 it was 12.5 to 150 µg/mL.

Turning to `CCc1cc(C(=O)O)c(=O)[nH]c1-c1cc2cc(CN(C)C)n(C)c2s1.Cl` [Cpd 65, 6-(5-((dimethylamino)methyl)-6-methyl-6H-thieno[2,3-b]pyrrol-2-yl)-5-ethyl-2-oxo-1,2-dihydropyridine-3-carboxylic acid hydrochloride], the minimal inhibitory concentration (MIC) in assay [1] is 12.5 to 150 µg/mL; in assay [2], less than 1 µg/mL; in the assay with E. coli LZ3111, 12.5 to 150 µg/mL; in the assay on E. coli 25922, 3.5 to 12.5 µg/mL.

In the case of `CCc1cc(C(=O)O)c(=O)[nH]c1-c1ccc2c(c1)cc1n2CCNC1` [Cpd 66, 5-ethyl-2-oxo-6-(1,2,3,4-tetrahydropyrazino[1,2-a]indol-8-yl)-1,2-dihydropyridine-3-carboxylic acid], the MIC was 12.5 to 150 µg/mL (≈ 37.1 to 445 µM) in assay [1], less than 1 µg/mL in assay [2], 12.5 to 150 µg/mL (≈ 37.1 to 445 µM) with E. coli LZ3111 and less than 1 µg/mL in the assay with E. coli 25922.

In the case of `CCc1cc(C(=O)O)c(=O)[nH]c1-c1ccc2c(c1)cc([C@H]1CCCN1)n2C.Cl` [Cpd 67, (R)-5-ethyl-6-(1-methyl-2-(pyrrolidin-2-yl)-1H-indol-5-yl)-2-oxo-1,2-dihydropyridine-3-carboxylic acid hydrochloride], the minimum inhibitory concentration (MIC) in assay [1] is 12.5 to 150 µg/mL; in assay [2] it was less than 1 µg/mL; with E. coli LZ3111 it was 12.5 to 150 µg/mL; with E. coli 25922, 1 to 3.5 µg/mL.

Regarding `CCc1cc(C(=O)O)c(=O)[nH]c1-c1ccc2c(c1)cc([C@H]1CCCN1C)n2C` [Cpd 68, (R)-5-ethyl-6-(1-methyl-2-(1-methylpyrrolidin-2-yl)-1H-indol-5-yl)-2-oxo-1,2-dihydropyridine-3-carboxylic acid], the minimum inhibitory concentration (MIC) in assay [1] was 12.5 to 150 µg/mL (≈ 32.9 to 395 µM); in assay [2] it was less than 1 µg/mL; with E. coli LZ3111, 12.5 to 150 µg/mL (≈ 32.9 to 395 µM); in the assay on E. coli 25922 it was 1 to 3.5 µg/mL (≈ 2.64 to 9.22 µM).

For `CCc1cc(C(=O)O)c(=O)[nH]c1-c1ccc2c(c1)cc([C@@H]1CCCN1)n2C.Cl` [Cpd 69, (S)-5-ethyl-6-(1-methyl-2-(pyrrolidin-2-yl)-1H-indol-5-yl)-2-oxo-1,2-dihydropyridine-3-carboxylic acid hydrochloride], the minimal inhibitory concentration (MIC) in assay [1] was 12.5 to 150 µg/mL; in assay [2], less than 1 µg/mL; with E. coli LZ3111 it was 12.5 to 150 µg/mL; with E. coli 25922, 1 to 3.5 µg/mL.

Take `CCc1cc(C(=O)O)c(=O)[nH]c1-c1ccc2c(c1)cc(C1CNCCN1)n2C.Cl.Cl` (centres unmarked) [Cpd 70, 5-ethyl-6-(1-methyl-2-(piperazin-2-yl)-1H-indol-5-yl)-2-oxo-1,2-dihydropyridine-3-carboxylic acid dihydrochloride]: the minimum inhibitory concentration (MIC) lay within 12.5 to 150 µg/mL in assay [1], 3.5 to 12.5 µg/mL in assay [2], 12.5 to 150 µg/mL in the assay on E. coli LZ3111 and 12.5 to 150 µg/mL with E. coli 25922.

`CCc1cc(C(=O)O)c(=O)[nH]c1-c1ccc2c(c1)cc(C1CNCCN1C)n2C.Cl.Cl` (centres unmarked) [Cpd 71, 5-ethyl-6-(1-methyl-2-(1-methylpiperazin-2-yl)-1H-indol-5-yl)-2-oxo-1,2-dihydropyridine-3-carboxylic acid dihydrochloride]: the minimal inhibitory concentration (MIC) fell in the range of 12.5 to 150 µg/mL in assay [1], 3.5 to 12.5 µg/mL in assay [2], 12.5 to 150 µg/mL in the assay on E. coli LZ3111 and 12.5 to 150 µg/mL in the assay on E. coli 25922.

In the case of `CCc1cc(C(=O)O)c(=O)[nH]c1-c1ccc2c(c1)c(C#N)cn2C` [Cpd 72, 6-(3-cyano-1-methyl-1H-indol-5-yl)-5-ethyl-2-oxo-1,2-dihydropyridine-3-carboxylic acid], the MIC in assay [1] lay in the range of 12.5 to 150 µg/mL (≈ 38.9 to 467 µM); in assay [2], 3.5 to 12.5 µg/mL (≈ 10.9 to 38.9 µM); in the assay on E. coli LZ3111, 12.5 to 150 µg/mL (≈ 38.9 to 467 µM); in the assay with E. coli 25922, 12.5 to 150 µg/mL (≈ 38.9 to 467 µM).

Consider `CCc1cc(C(=O)O)c(=O)[nH]c1-c1ccc2c(c1)c(C(N)=O)cn2C` [Cpd 73, 6-(3-carbamoyl-1-methyl-1H-indol-5-yl)-5-ethyl-2-oxo-1,2-dihydropyridine-3-carboxylic acid], for which the minimal inhibitory concentration (MIC) (in assay [1]; in assay [2]; in the assay on E. coli LZ3111; with E. coli 25922) was 12.5 to 150 µg/mL (≈ 36.8 to 442 µM) in each case.

`CCc1cc(C(=O)O)c(=O)[nH]c1-c1ccc2c(c1)c(CN)cn2C` [Cpd 74, 6-(3-(aminomethyl)-1-methyl-1H-indol-5-yl)-5-ethyl-2-oxo-1,2-dihydropyridine-3-carboxylic acid]: the MIC (in assay [1]; in assay [2]; with E. coli LZ3111; in the assay with E. coli 25922) was 12.5 to 150 µg/mL (≈ 38.4 to 461 µM) throughout.

Regarding `CCc1cc(C(=O)O)c(=O)[nH]c1-c1ccc2c(c1)c(CN(C)C)cn2C` [Cpd 75, 6-(3-((dimethylamino)methyl)-1-methyl-1H-indol-5-yl)-5-ethyl-2-oxo-1,2-dihydropyridine-3-carboxylic acid], the minimum inhibitory concentration (MIC) (in assay [1]; in assay [2]; with E. coli LZ3111; in the assay on E. coli 25922) was 12.5 to 150 µg/mL (≈ 35.4 to 424 µM) throughout.

Turning to `CCc1cc(C(=O)O)c(=O)[nH]c1-c1ccc2c(c1)c(CN(CC)CC)cn2C` [Cpd 76, 6-(3-((diethylamino)methyl)-1-methyl-1H-indol-5-yl)-5-ethyl-2-oxo-1,2-dihydropyridine-3-carboxylic acid], the minimum inhibitory concentration (MIC) (in assay [1]; in assay [2]; in the assay on E. coli LZ3111; in the assay on E. coli 25922) was 12.5 to 150 µg/mL (≈ 32.8 to 393 µM) throughout.

`CCc1cc(C(=O)O)c(=O)[nH]c1-c1ccc2c(c1)c(CN(Cc1ccccc1)Cc1ccccc1)cn2C` [Cpd 77, 6-(3-((dibenzylamino)methyl)-1-methyl-1H-indol-5-yl)-5-ethyl-2-oxo-1,2-dihydropyridine-3-carboxylic acid]: the minimum inhibitory concentration (MIC) in assay [1] lay within 3.5 to 12.5 µg/mL (≈ 6.92 to 24.7 µM); in assay [2], 3.5 to 12.5 µg/mL (≈ 6.92 to 24.7 µM); in the assay on E. coli LZ3111, 12.5 to 150 µg/mL (≈ 24.7 to 297 µM); in the assay with E. coli 25922, 12.5 to 150 µg/mL (≈ 24.7 to 297 µM).

As to `CCc1cc(C(=O)O)c(=O)[nH]c1-c1ccc2c(cc(CN3CCCC3)n2C)n1` [Cpd 84, 5-ethyl-6-(1-methyl-2-(pyrrolidin-1-ylmethyl)-1H-pyrrolo[3,2-b]pyridin-5-yl)-2-oxo-1,2-dihydropyridine-3-carboxylic acid], the MIC lay within 12.5 to 150 µg/mL (≈ 32.9 to 394 µM) in assay [1], 1 to 3.5 µg/mL (≈ 2.63 to 9.2 µM) in assay [2], 12.5 to 150 µg/mL (≈ 32.9 to 394 µM) with E. coli LZ3111 and 3.5 to 12.5 µg/mL (≈ 9.2 to 32.9 µM) with E. coli 25922.

For `CCc1cc(C(=O)O)c(=O)[nH]c1-c1ccc2c(c1)cc(C1=NCCN1)n2C` [Cpd 85, 6-(2-(4,5-dihydro-1H-imidazol-2-yl)-1-methyl-1H-indol-5-yl)-5-ethyl-2-oxo-1,2-dihydropyridine-3-carboxylic acid], the minimum inhibitory concentration (MIC) lay in the range of 12.5 to 150 µg/mL (≈ 34.3 to 412 µM) in assay [1], 1 to 3.5 µg/mL (≈ 2.74 to 9.6 µM) in assay [2], 12.5 to 150 µg/mL (≈ 34.3 to 412 µM) in the assay with E. coli LZ3111 and 12.5 to 150 µg/mL (≈ 34.3 to 412 µM) in the assay on E. coli 25922.

On to `CCc1cc(C(=O)O)c(=O)[nH]c1-c1ccc2c(c1)cc(C1=NCCCN1)n2C` [Cpd 86, 5-ethyl-6-(1-methyl-2-(1,4,5,6-tetrahydropyrimidin-2-yl)-1H-indol-5-yl)-2-oxo-1,2-dihydropyridine-3-carboxylic acid], for which the MIC (in assay [1]; in assay [2]; with E. coli LZ3111; in the assay with E. coli 25922) was 12.5 to 150 µg/mL (≈ 33 to 396 µM) in each case.

As to `CCc1cc(C(=O)O)c(=O)[nH]c1-c1ccc2c(c1)cc(C(C)(C)N(C)C)n2C` [Cpd 87, 6-(2-(2-(dimethylamino)propan-2-yl)-1-methyl-1H-indol-5-yl)-5-ethyl-2-oxo-1,2-dihydropyridine-3-carboxylic acid], the MIC in assay [1] was 12.5 to 150 µg/mL (≈ 32.8 to 393 µM); in assay [2], less than 1 µg/mL; in the assay with E. coli LZ3111, 12.5 to 150 µg/mL (≈ 32.8 to 393 µM); in the assay with E. coli 25922 it was 3.5 to 12.5 µg/mL (≈ 9.17 to 32.8 µM).

With `CCc1cc(C(=O)O)c(=O)[nH]c1-c1ccc2c(c1)cc(C(C)(C)N1CCCC1)n2C` [Cpd 88, 5-ethyl-6-(1-methyl-2-(2-(pyrrolidin-1-yl)propan-2-yl)-1H-indol-5-yl)-2-oxo-1,2-dihydropyridine-3-carboxylic acid], the MIC in assay [1] was 12.5 to 150 µg/mL (≈ 30.7 to 368 µM); in assay [2], less than 1 µg/mL; with E. coli LZ3111, 12.5 to 150 µg/mL (≈ 30.7 to 368 µM); in the assay on E. coli 25922 it was 3.5 to 12.5 µg/mL (≈ 8.59 to 30.7 µM).

Regarding `CCc1cc(C(=O)O)c(=O)[nH]c1-c1cc2cc(CN3CCCC3)n(C)c2cc1C` [Cpd 89, 6-(1,6-dimethyl-2-(pyrrolidin-1-ylmethyl)-1H-indol-5-yl)-5-ethyl-2-oxo-1,2-dihydropyridine-3-carboxylic acid], the MIC (in assay [1]; in assay [2]; with E. coli LZ3111; in the assay on E. coli 25922) was 12.5 to 150 µg/mL (≈ 31.8 to 381 µM) throughout.

Consider `CCc1cc(C(=O)O)c(=O)[nH]c1-c1cc2cc(CN3CCCCC3)n(C)c2cc1C` [Cpd 90, 6-(1,6-dimethyl-2-(piperidin-1-ylmethyl)-1H-indol-5-yl)-5-ethyl-2-oxo-1,2-dihydropyridine-3-carboxylic acid], for which the MIC (in assay [1]; in assay [2]; with E. coli LZ3111; with E. coli 25922) was 12.5 to 150 µg/mL (≈ 30.7 to 368 µM) throughout.

Take `CCc1cc(C(=O)O)c(=O)[nH]c1-c1cc2cc(CN3CCOCC3)n(C)c2cc1Cl` [Cpd 91, 6-(6-chloro-1-methyl-2-(morpholinomethyl)-1H-indol-5-yl)-5-ethyl-2-oxo-1,2-dihydropyridine-3-carboxylic acid]: the MIC (in assay [1]; in assay [2]; with E. coli LZ3111; in the assay on E. coli 25922) was 12.5 to 150 µg/mL (≈ 29.1 to 349 µM) throughout.

A word on the MIC: it is the least concentration at which growth counts as inhibited.
